Results on seven compounds are retold here after patent US20240261418A1, “SOS1 DEGRADING AGENT AND PREPARATION METHOD THEREFOR AND APPLICATION THEREOF” (SHANGHAI LEADINGTAC PHARMACEUTICAL CO. LTD., priority 2021, published 2024).

Structures are written as SMILES.

Assay [1] concerns the target T1, SOS1 protein (Homo sapiens, UniProt Q07889).
T1 sequence (Q07889 1-1333): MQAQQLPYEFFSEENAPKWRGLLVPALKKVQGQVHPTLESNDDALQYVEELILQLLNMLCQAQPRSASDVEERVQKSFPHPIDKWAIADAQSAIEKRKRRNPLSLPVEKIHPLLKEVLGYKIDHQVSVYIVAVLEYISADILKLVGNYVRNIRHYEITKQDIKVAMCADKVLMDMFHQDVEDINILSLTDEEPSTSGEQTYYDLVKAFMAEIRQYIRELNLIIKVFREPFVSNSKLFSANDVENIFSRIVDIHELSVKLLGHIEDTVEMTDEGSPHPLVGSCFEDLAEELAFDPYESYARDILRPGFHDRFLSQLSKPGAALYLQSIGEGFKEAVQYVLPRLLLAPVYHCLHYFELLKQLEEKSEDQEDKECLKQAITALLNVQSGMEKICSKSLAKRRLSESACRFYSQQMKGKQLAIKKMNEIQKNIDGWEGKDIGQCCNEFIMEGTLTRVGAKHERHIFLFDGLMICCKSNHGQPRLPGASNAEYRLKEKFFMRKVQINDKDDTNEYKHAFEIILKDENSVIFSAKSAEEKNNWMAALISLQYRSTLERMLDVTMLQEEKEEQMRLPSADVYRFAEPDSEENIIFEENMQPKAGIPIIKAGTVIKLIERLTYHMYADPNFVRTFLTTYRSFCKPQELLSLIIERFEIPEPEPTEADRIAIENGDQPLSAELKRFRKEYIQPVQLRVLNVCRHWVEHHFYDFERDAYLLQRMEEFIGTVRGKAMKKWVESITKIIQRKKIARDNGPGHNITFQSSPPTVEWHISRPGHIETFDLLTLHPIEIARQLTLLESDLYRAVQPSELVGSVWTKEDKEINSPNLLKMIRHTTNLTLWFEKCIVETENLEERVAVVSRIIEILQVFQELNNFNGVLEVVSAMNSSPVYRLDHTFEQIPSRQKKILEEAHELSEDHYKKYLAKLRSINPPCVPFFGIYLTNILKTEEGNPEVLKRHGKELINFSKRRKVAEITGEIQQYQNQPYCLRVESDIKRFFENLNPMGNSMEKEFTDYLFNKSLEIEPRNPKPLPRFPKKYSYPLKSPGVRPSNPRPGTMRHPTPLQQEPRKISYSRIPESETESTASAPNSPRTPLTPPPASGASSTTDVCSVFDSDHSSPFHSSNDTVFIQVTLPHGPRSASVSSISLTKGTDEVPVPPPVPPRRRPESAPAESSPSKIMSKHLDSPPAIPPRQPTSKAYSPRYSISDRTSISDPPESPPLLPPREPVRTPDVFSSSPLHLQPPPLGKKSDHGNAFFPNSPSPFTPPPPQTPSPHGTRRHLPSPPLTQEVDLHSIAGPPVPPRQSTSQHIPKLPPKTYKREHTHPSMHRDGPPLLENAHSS
The assay can be described thus: SOS1 degradation assay (Western blot) in NCI-H358 cells. Particulars: NCI-H358 (KRAS G12C), 24 h. In kind it is cell-based. As to the method:
The specific procedures were as follows:
0.95 mL of cells were seeded into each well of a 24-well cell culture plate to achieve a cell density of 5×10^5 cells/well; the cell plate was incubated in an incubator at 37° C. with 5% CO2 overnight. Then 50 μL of the compound solution after dilution was added to each of the wells with the corresponding cells, so that the final concentration of the compound was in a range of 0.03-3000 nM.
After dosing, the cell plate was incubated in an incubator at 37° C. with 5% CO2 for 24 h. […] After the plate was left to stand on ice for 30 min, the protein lysate in each well was transferred to a 1.5 mL centrifuge tube and centrifuged at 15000 g for 20 min at 4° C. The cell lysate supernatant after centrifugation was cryopreserved at −80° C. for testing and was used for determining the degradation level of the SOS1 protein by a WB method. The concentration of total protein in the cell lysate supernatant was determined using the BCA Protein Quantification Kit (Tiangen, PA115-02).
The concentration of total protein in the cell lysate was determined by BCA. The total protein was adjusted to 0.5 μg/μL with PBS and 5×SDS- PAGE protein loading buffer (Beyotime, P001L), incubated in a water bath at 100° C. for 15 min, incubated in an ice bath on ice for 5 min, centrifuged at 14000 g for 1 min at 4° C., and mixed well as a loading sample for WB. Protein electrophoresis was performed on a precast gel (KeyGEN, KGMG010W15) with a loading volume of 10 μL (total protein: 5 μg) using a Tris-MOPS-SDS running solution (Adamas, P1598253) at a constant voltage of 120 V for 55 min. After the electrophoresis, the protein on the gel strip was transferred to a PVDF membrane at a constant current of 250 mA for 65 min. After the membrane transfer, the membrane was incubated in 1× QuickBlock blocking buffer (Beyotime, P0235) for 30 min at room temperature. […] The protein map was subjected to gray value analysis by the chemiluminescence imaging system from Clinx. […] Then the degradation rate was calculated by comparing the gray correction value with the gray correction value of the control group. Then nonlinear curve fitting was performed by GraphPad Prism 8 in the logarithmic concentration-inhibition rate to obtain the DC50 and Dmax values of the compounds.
Background: In western blotting, separated proteins are transferred to a membrane and probed.

Assay [2] concerns the target T2, KRAS-G12C/SOS1 (Homo sapiens, UniProt Q07889).
T2 construct: purchased Cisbio 63ADK000CB16PEG
T2 sequence (Q07889 1-1333): T1 sequence (Q07889 1-1333)
The assay can be described thus: KRAS-G12C/SOS1 binding assay (HTRF). Particulars: inhibition of KRAS-G12C/SOS1 binding. As to the method: Test Example 1: KRAS-G12C/SOS1 Binding Assay
The following method was used to determine the extent of inhibition of KRAS-G12C/SOS1 binding by the preferred compounds of the present invention under in vitro conditions. In this method, the competitive inhibition of KRAS-G12C/SOS1 binding by the preferred compounds was assayed by the homogeneous time-resolved fluorescence (HTRF) technology using the KRAS-G12C/SOS1 binding assay kit (Cisbio, 63ADK000CB16PEG).
The experimental procedures were as follows (refer to the kit instructions for details): the compounds of the present invention were each firstly dissolved in DMSO at a concentration of 20 mM, and then diluted in an equal gradient with a buffer in the kit, so that the final concentrations of the test compounds in the reaction system were in a range of 10000 nM-0.04 nM, and the final concentration of DMSO was 0.5%. 2 μL of the compounds were each incubated with 4 μL of 1×Tag1-SOS1, 4 μL of 1×Tag2-KRAS-G12C (containing 10 μM guanosine triphosphate, GTP) at 25° C. for 15 min. Then 5 μL of 1×Anti-Tag1-Tb3+ and 5 μL of 1×Anti-Tag2-XL665 were added to the reaction system, and the mixture was incubated on ice for 3 h. After the incubation, the fluorescence intensity of each well was measured at the excitation wavelength of 337 nm, the fluorescence intensity of each well was read at the emission wavelengths of 620 nm and 665 nm on a microplate reader EnVision (PerkinElmer, 2105) in an HTRF mode, and the Ratio value was calculated by the formula Ratio=(665 nm/620 nm)×[…]. The inhibition rates of the compounds at each concentration were calculated by comparing the fluorescence intensity ratio with that of the control group, and then nonlinear curve fitting was performed by GraphPad Prism 8 in the logarithmic concentration-inhibition rate to obtain the IC50 values of the compounds, as shown in Table 1.

What is called DC50 is the midpoint of the concentration-degradation curve. What is called Dmax is the largest share of the target that was removed. The IC50 is the concentration at which inhibition is half-maximal. A higher IC50 goes with a need for much substance. Turning to `CNCc1ccccc1-c1csc([C@@H](C)Nc2nc(C)nc3cc(OC)c([C@H]4CC[C@H](C(=O)N5CCN(CC6CCC7(CC6)CCN(C(=O)c6ccc(Cl)c(N8CCC(=O)NC8=O)c6)CC7)CC5)CC4)cc23)c1` [Example 2, 1-(2-chloro-5-(9-((4-((1R,4R)-4-(7-methoxy-2-methyl-4-(((R)-1-(4-(2-((methylamino)methyl)phenyl)thien-2-yl)ethyl)amino)quinazolin-6-yl)cyclohexane-1-carbonyl)piperazin-1-yl)methyl)-3-azaspiro[5.5]undecane-3-carbonyl)phenyl)dihydropyrimidine-2,4(1H,3H)-dione], in assay [1], the DC50 is under 0.05 µM and the greatest degradation seen (Dmax) was 80 to 100%. The IC50 in assay [2] was at most 0.015 µM. For `CNCc1ccccc1-c1csc([C@@H](C)Nc2nc(C)nc3cc(OC)c([C@H]4CC[C@H](C(=O)N5CCC(CCCC6CCN(C(=O)c7ccc(Cl)c(N8CCC(=O)NC8=O)c7)CC6)CC5)CC4)cc23)c1` [Example 3, 1-(2-chloro-5-(4-(3-(1-((1R,4R)-4-(7-methoxy-2-methyl-4-(((R)-1-(4-(2-((methylamino)methyl)phenyl)thien-2-yl)ethyl)amino)quinazolin-6-yl)cyclohexane-1-carbonyl)piperidin-4-yl)propyl)piperidine-1-carbonyl)phenyl)dihydropyrimidine-2,4(1H,3H)-dione], in that order: 0.1 to 0.5 µM, 50 to 80% and 0.015 to 0.03 µM.

For `COc1cc2nc(C)nc(N[C@@H](C)c3cc(N)cc(C(F)(F)F)c3)c2cc1[C@H]1CC[C@@H](C(=O)N2CCN(CCC3CCC4(CC3)CCN(C(=O)c3ccc(Cl)c(N5CCC(=O)NC5=O)c3)CC4)CC2)CC1` [Example 6, 1-(5-(9-(2-(4-((1S,4S)-4-(4-(((R)-1-(3-amino-5-(trifluoromethyl)phenyl)ethyl)amino)-7-methoxy-2-methylquinazolin-6-yl)cyclohexane-1-carbonyl)piperazin-1-yl)ethyl)-3-azaspiro[5.5]undecane-3-carbonyl)-2-chlorophenyl)dihydropyrimidine-2,4(1H,3H)-dione], in assay [1], the DC50 lay in the range of 1 to 10 µM and the “NCI-H358 (G12C) Dmax” value was “C (30≤Dmax (%)<50)”. The compound `CCNc1cc([C@@H](C)Nc2nc(C)nc3cc(OC)c([C@H]4CC[C@H](C(=O)N5CCN(CC6CCC7(CC6)CCN(C(=O)c6ccc(Cl)c(N8CCC(=O)NC8=O)c6)CC7)CC5)CC4)cc23)cc(C(F)(F)F)c1` [Example 7, 1-(2-chloro-5-(9-((4-((1R,4R)-4-(4-(((R)-1-(3-(ethylamino)-5-(trifluoromethyl)phenyl)ethyl)amino)-7-methoxy-2-methylquinazolin-6-yl)cyclohexane-1-carbonyl)piperazin-1-yl)methyl)-3-azaspiro[5.5]undecane-3-carbonyl)phenyl)dihydropyrimidine-2,4(1H,3H)-dione] showed a Dmax in assay [1] of 30 to 50%. Consider `COc1cc2nc(C)nc(N[C@H](C)c3cc(N)cc(C(F)(F)F)c3)c2cc1[C@H]1CC[C@H](C(=O)N2CCC(CCCN(C)C3CCN(Cc4ccc(Cl)c(N5CCC(=O)NC5=O)c4)CC3)CC2)CC1` [Example 10, 1-(5-((4-((3-(1-((1R,4R)-4-(4-(((R)-1-(3-amino-5-(trifluoromethyl)phenyl)ethyl)amino)-7-methoxy-2-methylquinazolin-6-yl)cyclohexane-1-carbonyl)piperidin-4-yl)propyl)(methyl)amino)piperidin-1-yl)methyl)-2-chlorophenyl)dihydropyrimidine-2,4(1H,3H)-dione], for which, in assay [1], the “NCI-H358 (G12C) Dmax” value was “D (Dma (%)<30)”. Take `COc1cc2nc(C)nc(N[C@H](C)c3cc(N)cc(C(F)(F)F)c3)c2cc1C1CCC(C(=O)N2CCC(CCOCC3CCN(C(=O)c4ccc5c(c4)C(=O)N(C4CCC(=O)NC4=O)C5=O)CC3)CC2)CC1` (stereo partly drawn) [Example 11, 5-(4-((2-(1-((1S,4S)-4-(4-(((R)-1-(3-amino-5-(trifluoromethyl)phenyl)ethyl)amino)-7-methoxy-2-methylquinazolin-6-yl)cyclohexane-1-carbonyl)piperidin-4-yl)ethoxy)methyl)piperidine-1-carbonyl)-2-(2,6-dioxopiperidin-3-yl)isoindoline-1,3-dione]: the “NCI-H358 (G12C) Dmax” value in assay [1] is on record as “A (80≤Dmax (%)≤100)”. Still for that read-out and setting: to `Cc1nc(N[C@H](C)c2cc(N)cc(C(F)(F)F)c2)c2cc([C@H]3CC[C@H](C(=O)N4CCN(CC5CCC6(CC5)CCN(C(=O)c5ccc(Cl)c(N7CCC(=O)NC7=O)c5)CC6)CC4)CC3)ncc2n1` [Example 50, 1-(5-(9-((4-((1R,4R)-4-(4-(((R)-1-(3-amino-5-(trifluoromethyl)phenyl)ethyl)amino)-2-methylpyrido[3,4-d]pyrimidin-6-yl)cyclohexane-1-carbonyl)piperazin-1-yl)methyl)-3-azaspiro[5.5]undecane-3-carbonyl)-2-chlorophenyl)dihydropyrimidine-2,4(1H,3H)-dione] belongs “B (50≤Dmax (%)<80)”.
